Measured values published in article PMC8550792, “Evolution of kinase polypharmacology across HSP90 drug discovery” (Cell Chemical Biology, 2021).
Several values for one entry are separate records, joined by “and”; a condition that tells them apart may be missing. Equal entries are not always repeated. Where two headings read alike, the source gives them in different places.

Assays:
Assay in all cases: biochemical
Format in all cases: biochemical
382 unique human kinases [1] = biological target: T1, 382 unique human kinases (Homo sapiens, UniProt P11802); settings: CDK4/cyclin D1, 10 uM
T1 construct: purchased Reaction Biology (HotSpot contract assay)
T1 sequence (P11802 whole entry): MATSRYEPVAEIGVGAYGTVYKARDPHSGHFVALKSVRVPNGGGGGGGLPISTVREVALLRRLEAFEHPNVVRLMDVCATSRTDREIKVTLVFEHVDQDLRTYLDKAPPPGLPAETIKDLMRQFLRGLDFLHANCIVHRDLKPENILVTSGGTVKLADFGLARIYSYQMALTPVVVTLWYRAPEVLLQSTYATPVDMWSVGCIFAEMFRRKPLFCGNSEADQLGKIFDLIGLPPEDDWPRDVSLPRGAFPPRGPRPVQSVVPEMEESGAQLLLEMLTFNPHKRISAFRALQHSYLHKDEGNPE

382 unique human kinases [2] = biological target: T2, 382 unique human kinases (Homo sapiens, UniProt P24941); settings: for remaining activity at 10 µM: read-out: % Enzyme Activity (relative to DMSO controls)
T2 construct: purchased Reaction Biology (HotSpot contract assay)

382 unique human kinases [3] = biological target: T3, 382 unique human kinases (Homo sapiens, UniProt P50750); settings: for remaining activity at 10 µM: read-out: % Enzyme Activity (relative to DMSO controls)
T3 construct: purchased Reaction Biology (HotSpot contract assay)
T3 sequence (P50750 whole entry): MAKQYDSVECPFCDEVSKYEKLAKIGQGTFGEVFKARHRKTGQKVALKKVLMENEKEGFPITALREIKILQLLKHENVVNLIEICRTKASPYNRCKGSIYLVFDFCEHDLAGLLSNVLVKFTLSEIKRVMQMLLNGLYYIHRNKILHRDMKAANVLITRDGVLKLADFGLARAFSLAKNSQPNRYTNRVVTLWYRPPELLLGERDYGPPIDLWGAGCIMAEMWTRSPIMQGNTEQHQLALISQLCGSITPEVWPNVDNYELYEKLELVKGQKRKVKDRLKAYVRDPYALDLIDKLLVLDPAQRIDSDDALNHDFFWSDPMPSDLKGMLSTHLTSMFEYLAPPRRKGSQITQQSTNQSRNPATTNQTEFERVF

382 unique human kinases [4] = biological target: T4, 382 unique human kinases (Homo sapiens, UniProt Q00534); settings: kinase CDK6/cyclin D1, compound 10 uM
T4 construct: purchased Reaction Biology (HotSpot contract assay)
T4 sequence (Q00534 whole entry): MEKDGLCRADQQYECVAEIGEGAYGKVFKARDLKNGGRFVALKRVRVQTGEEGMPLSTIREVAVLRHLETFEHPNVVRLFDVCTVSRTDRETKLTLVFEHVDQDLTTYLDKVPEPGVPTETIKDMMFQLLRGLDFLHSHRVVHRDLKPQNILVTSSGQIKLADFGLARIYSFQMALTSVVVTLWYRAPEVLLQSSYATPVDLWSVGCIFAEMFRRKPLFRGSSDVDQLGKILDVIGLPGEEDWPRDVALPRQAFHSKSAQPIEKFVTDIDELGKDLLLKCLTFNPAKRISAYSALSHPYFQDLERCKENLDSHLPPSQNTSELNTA

382 unique human kinases [5] = system: 382 unique human kinases
[6] = read-out: % Enzyme Activity (relative to DMSO controls)
[7] = kinase CDK2/cyclin O, compound 10 uM
[8] = kinase CDK9/cyclin K, compound 10 uM

SMILES: CCNC(=O)c1noc(-c2cc(C(C)C)c(O)cc2O)c1-c1ccc(CN2CCOCC2)cc1 [Luminespib (AUY-922)]
- % Enzyme Activity (relative to DMSO controls) (382 unique human kinases [1]): 100.66%
- remaining activity at 10 µM (382 unique human kinases [1]; [6]): 103%
- % Enzyme Activity (relative to DMSO controls) (382 unique human kinases [2]; CDK2/cyclin A, 10 uM): 97.81%
- remaining activity at 10 µM (382 unique human kinases [2]; CDK2/cyclin A, 10 uM): 97.9%
- % Enzyme Activity (relative to DMSO controls) (382 unique human kinases [2]; [7]): 100.70%
- remaining activity at 10 µM (382 unique human kinases [2]; [7]): 101%
- % Enzyme Activity (relative to DMSO controls) (382 unique human kinases [3]; CDK9/cyclin T2, 10 uM): 89.68%
- remaining activity at 10 µM (382 unique human kinases [3]; CDK9/cyclin T2, 10 uM): 89.7%
- % Enzyme Activity (relative to DMSO controls) (382 unique human kinases [3]; [8]): 104.02%
- remaining activity at 10 µM (382 unique human kinases [3]; [8]): 104%
- % Enzyme Activity (relative to DMSO controls) (382 unique human kinases [4]): 105.58%
- remaining activity at 10 µM (382 unique human kinases [4]; [6]): 106%
- % Enzyme Activity (relative to DMSO controls) (382 unique human kinases [5]; ALK (F1174L)-EML4, 10 uM): 85.87% and 84.56%
- % Enzyme Activity (relative to DMSO controls) (382 unique human kinases [5]; ALK (F1174L)-NPM1, 10 uM): 102.87% and 100.42%
- % Enzyme Activity (relative to DMSO controls) (382 unique human kinases [5]; ALK-NPM1, 10 uM): 100.77% and 99.39%
- % Enzyme Activity (relative to DMSO controls) (382 unique human kinases [5]; ALK-TFG, 10 uM): 100.17% and 98.13%
- % Enzyme Activity (relative to DMSO controls) (382 unique human kinases [5]; BRAF (R506_K507insVLR), compound at 10 uM, duplicate values): 111.39% and 111.37%
- % Enzyme Activity (relative to DMSO controls) (382 unique human kinases [5]; BRAF (d485-489/P490Y), compound at 10 uM, duplicate values): 105.00% and 104.80%
- % Enzyme Activity (relative to DMSO controls) (382 unique human kinases [5]; BRAF-KIAA1549 (Kex15Bex9), compound at 10 uM, duplicate values): 106.11% and 102.92%
- % Enzyme Activity (relative to DMSO controls) (382 unique human kinases [5]; BRAF-KIAA1549 (Kex16Bex9), compound at 10 uM, duplicate values): 104.70% and 104.59%
- % Enzyme Activity (relative to DMSO controls) (382 unique human kinases [5]; BRAF-SRGAP3 (Sex12Bex9), compound at 10 uM, duplicate values): 107.79% and 106.99%
- % Enzyme Activity (relative to DMSO controls) (382 unique human kinases [5]; PDGFRb-TPM3, 10 uM): 63.63% and 61.80%
- % Enzyme Activity (relative to DMSO controls) (382 unique human kinases [5]; PKG1b, 10 uM): 60.28% and 59.59%
- % Enzyme Activity (relative to DMSO controls) (382 unique human kinases [5]; RET-CCDC6 (PTC1), 10 uM): 105.26% and 102.15%
- % Enzyme Activity (relative to DMSO controls) (382 unique human kinases [5]; RET-NCOA4 (PTC3), 10 uM): 95.03% and 94.64%
- % Enzyme Activity (relative to DMSO controls) (382 unique human kinases [5]; RET-PRKAR1A (PTC2), 10 uM): 95.60% and 94.13%
- % Enzyme Activity (relative to DMSO controls) (382 unique human kinases [5]; ROS1-TPM3, 10 uM): 97.28% and 96.49%
- % Enzyme Activity (relative to DMSO controls) (382 unique human kinases [5]; kinase EGFR (A763_Y764insFHEA), compound 10 uM): 98.66% and 97.53%
- % Enzyme Activity (relative to DMSO controls) (382 unique human kinases [5]; kinase EGFR (D770GY), compound 10 uM): 129.18% and 126.54%
- % Enzyme Activity (relative to DMSO controls) (382 unique human kinases [5]; kinase EGFR (D770_N771insNPG), compound 10 uM): 106.12% and 103.12%
- % Enzyme Activity (relative to DMSO controls) (382 unique human kinases [5]; kinase EGFR (d746), compound 10 uM): 98.75% and 97.31%
- % Enzyme Activity (relative to DMSO controls) (382 unique human kinases [5]; kinase EGFR (d746-750/T790M/C797S), compound 10 uM): 100.68% and 100.47%
- % Enzyme Activity (relative to DMSO controls) (382 unique human kinases [5]; kinase EGFR (d747-752/P753S), compound 10 uM): 98.74% and 98.40%
- % Enzyme Activity (relative to DMSO controls) (382 unique human kinases [5]; kinase ERBB2 (P780_Y781insGSP), compound 10 uM): 96.69% and 95.30%
- % Enzyme Activity (relative to DMSO controls) (382 unique human kinases [5]; kinase KSR1 (L639F), compound 10 uM): 103.34% and 102.74%
- % Enzyme Activity (relative to DMSO controls) (382 unique human kinases [5]; kinase PDGFRa-FIP1L1, compound 10 uM): 98.64% and 97.51%
- % Enzyme Activity (relative to DMSO controls) (382 unique human kinases [5]; kinase RET-BCR, compound 10 uM): 97.53% and 96.48%
